{"source": "patent US20050182140A1", "about": "“Antimicrobial compositions” (Microban Products Company, priority 2003, published 2005)", "format_in_all_cases": "cell-based", "key": {"K. pneumoniae [1]": {"system": "K. pneumoniae", "assay": "Kirby Bauer Test Method, treated cotton samples (Example 3)", "settings": "agent at 800 ppm with R10800 at 0.67% and USV at 0.33%, cotton laundered 50 times", "method": "(§1) The efficacy of Emulsion A in cotton sample material was tested, alone and in combination with other agents. The Kirby Bauer Test Method, which is a known bacterial test method, was followed. The sample size of the cotton was 38.1 mm×38.1 mm (1.5 inches×1.5 inches) square. The growth medium was Mueller-Hinton Agar. Prior to treatment, the cotton was steam sterilized at 121° C. The samples were pre-wet with sterile deionized water. The samples were incubated at 37° C.±2° C. for 18 to 24 hours. The samples were each laundered 50 times unless indicated to the contrary. NZ means that no zone of inhibition surrounded the sample. NI means that there was no inhibition of growth under the sample (if observable). The zone of inhibition was reported in millimeters.\n(§2) Note that the percentages of R10800 and USV represent target loading levels on the cotton samples."}, "S. aureus 6538 [2]": {"system": "S. aureus 6538", "assay": "Kirby Bauer Test Method, treated cotton samples (Example 3)", "settings": "agent at 800 ppm with R10800 at 0.67% and USV at 0.33%, cotton laundered 50 times", "method": "as §1, §2"}, "K. pneumoniae [3]": {"system": "K. pneumoniae", "assay": "AATCC Test Method 147, treated cotton samples (Examples 2 and 4)", "settings": "Example 2; agent at 900 ppm; cotton laundered 50 times", "method": "(§3) The efficacy of Emulsion A in cotton sample material was tested, alone and in combination with other agents. The AATCC Test Method 147, which is a known bacterial test method for textiles, was followed. The sample size of the cotton was a 25 mm×75 mm rectangle. The growth medium was Nutrient Agar. Prior to treatment, the cotton was steam sterilized at 121° C. The samples were incubated at 37° C.±2° C. for 18 to 24 hours. The samples were each laundered 50 times prior to doing the micro testing unless indicated to the contrary. NZ means that no zone of inhibition surrounded the sample. NI means that there was no inhibition of growth under the sample (if observable). The zone of inhibition was reported in millimeters.\n(§4) The efficacy of Emulsion A in cotton sample material was tested, alone and in combination with other agents. The AATCC Test Method 147, which is a known test method, was followed. The sample size of the cotton was 25 mm×75 mm rectangle. The growth medium was Nutrient Agar. Prior to treatment, the cotton was steam sterilized at 121° C. The samples were incubated at 37° C.±2° C. for 18 to 24 hours. The samples were each laundered 50 times unless indicated to the contrary. NZ means that no zone of inhibition surrounded the sample. NI means there was no inhibition of growth under the sample (if observable). The zone of inhibition was reported in millimeters."}, "S. aureus 6538 [4]": {"system": "S. aureus 6538", "assay": "AATCC Test Method 147, treated cotton samples (Examples 2 and 4)", "settings": "Example 2; agent at 900 ppm; cotton laundered 50 times", "method": "as §3, §4"}}}
{"compound": "Oc1ccccc1-c1ccccc1", "note": "[Ortho-phenyl phenol]", "values": [{"measurement": "Size of Zone", "setting": "K. pneumoniae [1]", "result": 0, "unit": "mm"}, {"measurement": "Zone Results", "setting": "K. pneumoniae [1]", "result": "NZ/NI"}, {"measurement": "Size of Zone", "setting": "S. aureus 6538 [2]", "result": 0, "unit": "mm"}, {"measurement": "Zone Results", "setting": "S. aureus 6538 [2]", "result": "NZ/NI"}]}
{"compound": "O=C(Nc1ccc(Cl)cc1)Nc1ccc(Cl)c(Cl)c1", "note": "[Triclocarban]", "values": [{"measurement": "Size of Zone", "setting": "K. pneumoniae [1]", "result": 0, "unit": "mm"}, {"measurement": "Zone Results", "setting": "K. pneumoniae [1]", "result": "NZ/NI"}, {"measurement": "Size of Zone", "setting": "S. aureus 6538 [2]", "result": 0, "unit": "mm"}, {"measurement": "Zone Results", "setting": "S. aureus 6538 [2]", "result": "NZ/NI"}]}
{"compound": "Zinc pyrithione [Zinc pyrithione (FPS dispersion)]", "values": [{"measurement": "Size of Zone", "setting": "K. pneumoniae [3]", "result": 0, "unit": "mm"}, {"measurement": "Zone Results", "setting": "K. pneumoniae [3]", "result": "NZ/NI"}, {"measurement": "Size of Zone", "setting": "S. aureus 6538 [4]", "result": 2, "unit": "mm"}, {"measurement": "Size of Zone", "setting": "K. pneumoniae [1]", "result": 0, "unit": "mm"}, {"measurement": "Zone Results", "setting": "K. pneumoniae [1]", "result": "NZ/NI"}, {"measurement": "Size of Zone", "setting": "S. aureus 6538 [2]", "result": 0, "unit": "mm"}, {"measurement": "Zone Results", "setting": "S. aureus 6538 [2]", "result": "NZ/I"}]}
